# According to patent US11427574B2, “Compounds for treating Rac-GTPase mediated disorder” (Children's Medical Center Corporation, priority 2015, dated 2022):
# What was measured:
# CDK1/cyclin B = CDK1/cyclin B (Homo sapiens, UniProt P06493); test: Kinase screening; assay type: biochemical
# Experimental: (§1) Compound 1 was tested for its efficacy in inhibiting activities of 40 kinases and binding with 12 GPCRs both as an antagonist and an agonist.
# PAK1 = PAK1 (Homo sapiens, UniProt Q13153); test: Kinase screening; assay type: biochemical
# Experimental: as §1
# [1] = target: PIK3CA/PIK3R1 (p110 alpha/p85 alpha) (Homo sapiens, UniProt P42336); test: Kinase screening; assay type: biochemical
# Experimental: as §1
# EPHB1 = EPHB1 (Homo sapiens, UniProt P54762); test: Kinase screening; assay type: biochemical
# Experimental: as §1
# PAK7 (KIAA1264) = PAK7 (KIAA1264) (Homo sapiens, UniProt Q9P286); test: Kinase screening; assay type: biochemical
# Experimental: as §1
# CDK5/p25 = CDK5/p25 (Homo sapiens, UniProt Q00535); test: Kinase screening; assay type: biochemical
# Experimental: as §1
# ROCK1 = ROCK1 (Homo sapiens, UniProt Q13464); test: Kinase screening; assay type: biochemical
# Experimental: as §1
# AKT2 (PKB beta) = AKT2 (PKB beta) (Homo sapiens, UniProt P31751); test: Kinase screening; assay type: biochemical
# Experimental: as §1
# JAK1 = JAK1 (Homo sapiens, UniProt P23458); test: Kinase screening; assay type: biochemical
# Experimental: as §1
# LIMK2 = LIMK2 (Homo sapiens, UniProt P53671); test: Kinase screening; assay type: biochemical
# Experimental: as §1
# PIK3C2B (PI3K-C2 beta) = PIK3C2B (PI3K-C2 beta) (Homo sapiens, UniProt O00750); test: Kinase screening; assay type: biochemical
# Experimental: as §1
# AKT1 (PKB alpha) = AKT1 (PKB alpha) (Homo sapiens, UniProt P31749); test: Kinase screening; assay type: biochemical
# Experimental: as §1
# CDC42 BPA (MRCKA) = CDC42 BPA (MRCKA) (Homo sapiens, UniProt Q5VT25); test: Kinase screening; assay type: biochemical
# Experimental: as §1
# PAK3 = PAK3 (Homo sapiens, UniProt O75914); test: Kinase screening; assay type: biochemical
# Experimental: as §1
# LIMK1 = LIMK1 (Homo sapiens, UniProt P53667); test: Kinase screening; assay type: biochemical
# Experimental: as §1
# ROCK2 = ROCK2 (Homo sapiens, UniProt O75116); test: Kinase screening; assay type: biochemical
# Experimental: as §1
# MAPK8 (JNK1) = MAPK8 (JNK1) (Homo sapiens, UniProt P45983); test: Kinase screening; assay type: biochemical
# Experimental: as §1
# JAK2 = JAK2 (Homo sapiens, UniProt O60674); test: Kinase screening; assay type: biochemical
# Experimental: as §1
# MAP3K2 (MEKK2) = MAP3K2 (MEKK2) (Homo sapiens, UniProt Q9Y2U5); test: Kinase screening; assay type: biochemical
# Experimental: as §1
# MYLK (MLCK) = MYLK (MLCK) (Homo sapiens, UniProt Q15746); test: Kinase screening; assay type: biochemical
# Experimental: as §1
# ABL1 = ABL1 (Homo sapiens, UniProt P00519); test: Kinase screening; assay type: biochemical
# Experimental: as §1
# MAP2K2 (MEK2) = MAP2K2 (MEK2) (Homo sapiens, UniProt P36507); test: Kinase screening; assay type: biochemical
# Experimental: as §1
# EGFR (ErbB1) = EGFR (ErbB1) (Homo sapiens, UniProt P00533); test: Kinase screening; assay type: biochemical
# Experimental: as §1
# MAPK9 (JNK2) = MAPK9 (JNK2) (Homo sapiens, UniProt P45984); test: Kinase screening; assay type: biochemical
# Experimental: as §1
# CDC42 BPB (MRCKB) = CDC42 BPB (MRCKB) (Homo sapiens, UniProt Q9Y5S2); test: Kinase screening; assay type: biochemical
# Experimental: as §1
# PDGFRA (PDGFR alpha) = PDGFRA (PDGFR alpha) (Homo sapiens, UniProt P16234); test: Kinase screening; assay type: biochemical
# Experimental: as §1
# PAK4 = PAK4 (Homo sapiens, UniProt O96013); test: Kinase screening; assay type: biochemical
# Experimental: as §1
# PAK2 (PAK65) = PAK2 (PAK65) (Homo sapiens, UniProt Q13177); test: Kinase screening; assay type: biochemical
# Experimental: as §1
# [2] = target: PIK3CD/PIK3R1 (p110 delta/p85 alpha) (Homo sapiens, UniProt O00329); test: Kinase screening; assay type: biochemical
# Experimental: as §1
# FLT3 = FLT3 (Homo sapiens, UniProt P36888); test: Kinase screening; assay type: biochemical
# Experimental: as §1
# PIK3C3 (hVPS34) = PIK3C3 (hVPS34) (Homo sapiens, UniProt Q8NEB9); test: Kinase screening; assay type: biochemical
# Experimental: as §1
# KIT = KIT (Homo sapiens, UniProt P10721); test: Kinase screening; assay type: biochemical
# Experimental: as §1
# PIK3C2A (PI3K-C2 alpha) = PIK3C2A (PI3K-C2 alpha) (Homo sapiens, UniProt O00443); test: Kinase screening; assay type: biochemical
# Experimental: as §1
# FRAP1 (mTOR) = FRAP1 (mTOR) (Homo sapiens, UniProt P42345); test: Kinase screening; assay type: biochemical
# Experimental: as §1
# SRC = SRC (Homo sapiens, UniProt P12931); test: Kinase screening; assay type: biochemical
# Experimental: as §1
# MAPK3 (ERK1) = MAPK3 (ERK1) (Homo sapiens, UniProt P27361); test: Kinase screening; assay type: biochemical
# Experimental: as §1
# SYK = SYK (Homo sapiens, UniProt P43405); test: Kinase screening; assay type: biochemical
# Experimental: as §1
# JAK3 = JAK3 (Homo sapiens, UniProt P52333); test: Kinase screening; assay type: biochemical
# Experimental: as §1
# IGF1R = IGF1R (Homo sapiens, UniProt P08069); test: Kinase screening; assay type: biochemical
# Experimental: as §1
# PAK6 = PAK6 (Homo sapiens, UniProt Q9NQU5); test: Kinase screening; assay type: biochemical
# Experimental: as §1
# Rac1 = Rac1 (Homo sapiens, UniProt P63000); test: 2D NMR spectroscopy binding assay; conditions: 50 μM Rac1 and 250 μM Compound 2
# Experimental: (§2) Compound 1 was tested for its efficacy in binding with Rac1 in two independent binding assays, i.e., 2D NMR spectroscopy and Homologous time resolved fluorescence assay (HTRF).
# (§3) In the 2D NMR assay, samples containing 50 μM Rac1 and 250 μM or 400 μM Compound 1 were used.
# (§4) Compound 2 was tested for its efficacy in binding with Rac1 in two independent binding assays, i.e., 2D NMR spectroscopy and Homologous time resolved fluorescence assay (HTRF).
# (§5) In the 2D NMR assay, a sample containing 50 μM Rac1 and 250 μM Compound 2 was used.
# cancer cell = test: Cellular proliferation assay of SAR analogs; assay type: cell-based; conditions: among 48 tested SAR analogs
# Experimental: SAR was performed to identify analogs of Compound that have improved properties. 56 Compounds identified in this SAR study were synthesized. Among them, 48 compounds were tested a cellular proliferation assay.
# SEM cell line = test: Annexin V flow assay for apoptosis and cell death, SEM; assay type: cell-based; conditions: Annexin V staining
# Source text: FIGS. 3a-3c show three graphs illustrating the dose dependent inhibition of proliferation of Compound 1 in SEM, P12, and Loucy cells as measured by MTS assay. […] Compound 1 was further analyzed for its effect on cell apoptosis and cell death using a flow based assay using Annexin V staining.
# Compound 2 was further analyzed for its effect on cell apoptosis and cell death using a flow based assay using Annexin V staining.
# P12-ICHIKAWA cells = test: In vivo P12-ICHIKAWA leukemia model in NSG mice; conditions: 50 mg/Kg body weight oral twice daily; supine position, vs vehicle
# Experimental: Specifically, cell line P12-ICHIKAWA was marked with a lentiviral vector coexpressing Luciferase and an mCherry fluorescent tag. Sorted mCherry positive P12-ICHIKAWA cells were injected into immunodeficient (NSG) mice. About 3 weeks after injection, based on an estimation of the tumor burden by quantitative assessment of bioluminescence imaging (BLI) in vivo, mice began treatment. Mice received twice daily oral doses of Compound 2 (50 mg/Kg body weight) or placebo. Each of the Compound 2 group and the vehicle group had eight mice. BLI analysis was performed three times a week to assess tumor burden. Toxicity was assessed by evaluating body weight in treated mice vs vehicle group (see FIG. 13a). The experiment was halted at day 18 after beginning of treatment due to the very aggressive nature of the disease in the vehicle group. Mice were imaged in the supine and prone position. FIG. 13b summarizes BLI values normalized to treatment start in both the compound 2 group and the vehicle group in the supine position.
# Tiam1-Rac complex = Tiam1-Rac complex (Homo sapiens, UniProt P63000); test: Homologous time resolved fluorescence (HTRF) binding assay
# Experimental: as §2, §3, §4, §5
# SEM cells = test: Proliferation assay in SEM leukemia cells; assay type: cell-based; conditions: compared to Compound 1 (FIG. 12a)
# Experimental: Dose Dependent Inhibition of Proliferation The 100 compounds selected from the initial in silico screen were assayed for inhibition of proliferation in two leukemia cell lines, SEM and P12 by Cell Titer Glo. The cells for the proliferation assay were spun down and re-suspended. The cell suspension was then divided and the compound to be tested added in desired concentrations and subsequently plated. Following an incubation period, the Cell Titer Glo reagent (Promega CellTiter 96® Aqueous Non-Radioactive Cell Proliferation Assay) was added and allowed to incubate. The absorbance is subsequently measured at 490 nm using a plate reader. Each compound was analyzed for its effects on cell proliferation.
# The lead compound, i.e. Compound 1, was analyzed for its effect on cell proliferation at various doses on three different leukemia cell lines: SEM, P12, and Loucy. In order to quantitate the percentage inhibition of cell proliferation, Cell Titer Glo analysis was completed as described in Example 2 above.
# FIGS. 3a-3c show three graphs illustrating the dose dependent inhibition of proliferation of Compound 1 in SEM, P12, and Loucy cells as measured by MTS assay. […] Compound 1 was further analyzed for its effect on cell apoptosis and cell death using a flow based assay using Annexin V staining. […]
# Chain of ROCK2 (O75116 whole entry, species assumed): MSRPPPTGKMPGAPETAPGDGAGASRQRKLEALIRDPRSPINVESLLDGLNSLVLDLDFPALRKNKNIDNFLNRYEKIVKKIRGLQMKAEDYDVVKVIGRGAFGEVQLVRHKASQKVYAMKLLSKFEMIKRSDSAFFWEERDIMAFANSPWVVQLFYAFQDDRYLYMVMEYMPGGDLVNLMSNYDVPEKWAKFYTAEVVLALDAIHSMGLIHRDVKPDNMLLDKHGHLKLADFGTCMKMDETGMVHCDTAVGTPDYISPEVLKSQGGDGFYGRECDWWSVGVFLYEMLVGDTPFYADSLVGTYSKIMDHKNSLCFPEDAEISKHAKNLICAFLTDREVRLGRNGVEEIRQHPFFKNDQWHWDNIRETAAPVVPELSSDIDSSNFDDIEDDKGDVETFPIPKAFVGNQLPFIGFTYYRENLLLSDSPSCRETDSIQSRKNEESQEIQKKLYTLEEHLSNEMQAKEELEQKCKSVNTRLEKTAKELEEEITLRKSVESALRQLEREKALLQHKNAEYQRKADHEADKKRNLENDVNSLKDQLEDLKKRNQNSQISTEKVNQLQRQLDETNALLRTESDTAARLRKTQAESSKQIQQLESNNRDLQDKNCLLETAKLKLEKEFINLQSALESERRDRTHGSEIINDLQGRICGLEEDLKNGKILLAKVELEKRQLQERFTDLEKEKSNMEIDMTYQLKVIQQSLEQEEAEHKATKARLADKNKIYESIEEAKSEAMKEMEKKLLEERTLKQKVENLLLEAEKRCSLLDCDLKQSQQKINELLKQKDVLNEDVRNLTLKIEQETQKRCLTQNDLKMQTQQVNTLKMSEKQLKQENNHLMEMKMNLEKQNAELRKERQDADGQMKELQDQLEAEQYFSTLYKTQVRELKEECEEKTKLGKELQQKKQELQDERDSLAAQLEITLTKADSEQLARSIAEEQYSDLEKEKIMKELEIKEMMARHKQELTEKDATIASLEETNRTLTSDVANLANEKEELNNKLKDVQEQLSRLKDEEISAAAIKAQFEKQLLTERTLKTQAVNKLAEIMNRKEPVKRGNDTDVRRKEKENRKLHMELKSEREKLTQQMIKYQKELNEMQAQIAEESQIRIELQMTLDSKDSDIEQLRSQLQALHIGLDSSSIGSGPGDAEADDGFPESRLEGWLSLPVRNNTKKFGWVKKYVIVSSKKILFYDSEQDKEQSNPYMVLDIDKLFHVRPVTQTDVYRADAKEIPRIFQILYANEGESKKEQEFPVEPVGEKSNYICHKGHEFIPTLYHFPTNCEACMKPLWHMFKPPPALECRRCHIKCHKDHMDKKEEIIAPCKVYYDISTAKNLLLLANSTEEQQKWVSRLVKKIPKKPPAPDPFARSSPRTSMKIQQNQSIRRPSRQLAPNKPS
# Chain of FLT3 (P36888 27-993, species assumed): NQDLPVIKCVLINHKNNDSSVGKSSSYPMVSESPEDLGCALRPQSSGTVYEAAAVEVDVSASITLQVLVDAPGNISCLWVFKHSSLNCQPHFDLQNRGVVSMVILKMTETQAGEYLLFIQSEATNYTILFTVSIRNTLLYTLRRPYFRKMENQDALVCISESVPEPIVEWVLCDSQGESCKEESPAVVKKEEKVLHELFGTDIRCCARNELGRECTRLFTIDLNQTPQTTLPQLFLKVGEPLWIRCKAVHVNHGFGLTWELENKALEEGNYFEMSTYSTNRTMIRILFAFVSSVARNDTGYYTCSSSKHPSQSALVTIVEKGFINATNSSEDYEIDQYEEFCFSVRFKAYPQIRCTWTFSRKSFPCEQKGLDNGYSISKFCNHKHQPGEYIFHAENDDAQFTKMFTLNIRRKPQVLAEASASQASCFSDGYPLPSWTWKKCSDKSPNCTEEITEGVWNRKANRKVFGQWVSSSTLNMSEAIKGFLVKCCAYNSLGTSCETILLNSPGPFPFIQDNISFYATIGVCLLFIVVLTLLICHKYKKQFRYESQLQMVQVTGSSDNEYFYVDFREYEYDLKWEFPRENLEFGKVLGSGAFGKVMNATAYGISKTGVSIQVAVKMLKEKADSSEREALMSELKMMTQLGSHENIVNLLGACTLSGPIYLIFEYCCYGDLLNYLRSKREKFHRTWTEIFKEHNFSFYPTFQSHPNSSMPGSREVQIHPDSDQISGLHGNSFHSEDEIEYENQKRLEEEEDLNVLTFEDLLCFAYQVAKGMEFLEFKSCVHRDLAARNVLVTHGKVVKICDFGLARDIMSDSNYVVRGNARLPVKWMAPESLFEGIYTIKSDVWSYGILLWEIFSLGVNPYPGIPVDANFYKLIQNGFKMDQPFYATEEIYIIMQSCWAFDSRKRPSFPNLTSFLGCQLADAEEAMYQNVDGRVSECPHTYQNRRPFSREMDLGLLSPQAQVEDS
# Chain of MAPK8 (JNK1) (P45983 whole entry, species assumed): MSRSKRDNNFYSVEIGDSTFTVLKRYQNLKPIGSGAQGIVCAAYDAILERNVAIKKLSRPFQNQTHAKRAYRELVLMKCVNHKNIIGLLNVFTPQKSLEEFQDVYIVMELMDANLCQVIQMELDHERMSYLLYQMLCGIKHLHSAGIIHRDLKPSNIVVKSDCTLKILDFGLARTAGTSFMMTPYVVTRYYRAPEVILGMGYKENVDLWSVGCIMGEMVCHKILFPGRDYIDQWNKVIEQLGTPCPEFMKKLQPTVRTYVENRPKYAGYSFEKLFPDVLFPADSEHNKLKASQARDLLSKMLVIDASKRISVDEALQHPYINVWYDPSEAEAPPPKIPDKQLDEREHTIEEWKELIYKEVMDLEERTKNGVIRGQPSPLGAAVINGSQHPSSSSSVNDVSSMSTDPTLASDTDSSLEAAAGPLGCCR
# Chain of ABL1 (P00519 whole entry, species assumed): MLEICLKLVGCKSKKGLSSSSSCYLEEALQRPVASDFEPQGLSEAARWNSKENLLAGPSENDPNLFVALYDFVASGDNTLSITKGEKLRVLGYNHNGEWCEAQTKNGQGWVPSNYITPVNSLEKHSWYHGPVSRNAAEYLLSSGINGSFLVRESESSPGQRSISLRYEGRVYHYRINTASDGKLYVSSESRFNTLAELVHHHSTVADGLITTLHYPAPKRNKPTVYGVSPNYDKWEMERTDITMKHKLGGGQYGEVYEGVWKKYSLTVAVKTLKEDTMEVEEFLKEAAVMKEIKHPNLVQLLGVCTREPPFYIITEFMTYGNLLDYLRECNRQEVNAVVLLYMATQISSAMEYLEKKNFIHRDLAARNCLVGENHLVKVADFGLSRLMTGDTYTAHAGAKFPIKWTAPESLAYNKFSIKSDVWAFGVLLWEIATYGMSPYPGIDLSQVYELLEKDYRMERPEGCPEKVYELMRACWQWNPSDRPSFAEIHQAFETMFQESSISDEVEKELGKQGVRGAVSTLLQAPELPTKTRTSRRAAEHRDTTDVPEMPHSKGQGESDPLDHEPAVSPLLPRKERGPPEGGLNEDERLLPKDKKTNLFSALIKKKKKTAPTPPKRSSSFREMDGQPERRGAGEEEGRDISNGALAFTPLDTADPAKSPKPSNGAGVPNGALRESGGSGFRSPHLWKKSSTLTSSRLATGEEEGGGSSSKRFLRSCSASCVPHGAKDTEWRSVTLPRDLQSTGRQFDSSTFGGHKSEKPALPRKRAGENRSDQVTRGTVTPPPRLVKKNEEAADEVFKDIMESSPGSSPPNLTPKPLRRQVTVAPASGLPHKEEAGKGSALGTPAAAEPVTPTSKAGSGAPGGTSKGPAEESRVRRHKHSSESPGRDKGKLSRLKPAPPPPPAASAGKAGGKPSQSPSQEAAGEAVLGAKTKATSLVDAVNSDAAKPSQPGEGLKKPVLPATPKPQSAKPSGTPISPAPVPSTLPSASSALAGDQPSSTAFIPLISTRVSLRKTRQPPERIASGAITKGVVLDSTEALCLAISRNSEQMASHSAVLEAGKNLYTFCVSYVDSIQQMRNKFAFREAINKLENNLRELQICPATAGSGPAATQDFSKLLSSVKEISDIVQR
# Chain of KIT (P10721 26-976, species assumed): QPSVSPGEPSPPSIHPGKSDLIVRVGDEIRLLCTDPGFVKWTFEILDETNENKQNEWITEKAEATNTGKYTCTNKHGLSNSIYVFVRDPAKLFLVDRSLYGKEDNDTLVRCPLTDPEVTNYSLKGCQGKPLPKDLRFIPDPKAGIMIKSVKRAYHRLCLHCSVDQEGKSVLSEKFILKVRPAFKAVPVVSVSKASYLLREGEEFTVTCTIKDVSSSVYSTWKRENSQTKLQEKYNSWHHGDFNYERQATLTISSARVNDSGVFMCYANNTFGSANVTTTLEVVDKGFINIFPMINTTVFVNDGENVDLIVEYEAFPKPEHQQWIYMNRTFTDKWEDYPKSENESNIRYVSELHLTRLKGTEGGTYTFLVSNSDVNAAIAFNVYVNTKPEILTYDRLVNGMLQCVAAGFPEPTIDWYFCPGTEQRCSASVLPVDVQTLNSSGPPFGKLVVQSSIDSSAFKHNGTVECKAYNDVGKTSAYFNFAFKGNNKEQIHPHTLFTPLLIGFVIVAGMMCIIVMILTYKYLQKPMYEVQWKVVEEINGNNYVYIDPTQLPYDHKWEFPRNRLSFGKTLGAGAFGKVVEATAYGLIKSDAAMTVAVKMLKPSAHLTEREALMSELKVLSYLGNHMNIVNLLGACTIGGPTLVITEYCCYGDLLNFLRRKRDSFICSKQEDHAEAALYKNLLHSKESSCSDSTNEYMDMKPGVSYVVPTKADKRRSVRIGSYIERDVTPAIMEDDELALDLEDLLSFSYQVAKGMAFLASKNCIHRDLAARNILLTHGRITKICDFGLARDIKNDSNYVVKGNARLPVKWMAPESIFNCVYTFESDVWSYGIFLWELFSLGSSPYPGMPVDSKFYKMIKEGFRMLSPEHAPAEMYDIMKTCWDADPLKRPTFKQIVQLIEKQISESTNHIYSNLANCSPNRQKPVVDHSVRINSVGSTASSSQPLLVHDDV
smiles,measurement,setting,value
"CCN(CC)CCCC(C)Nc1nc(C)cc(Nc2ccc3nc(C)cc(N)c3c2)n1.Cl.Cl.Cl (racemic) [NSC23766, N6-[2-[[4-(diethylamino)-1-methylbutyl]amino]-6-methyl-4-pyrimidinyl]-2-methyl-4,6-quinolinediamine trihydrochloride, reference compound]",inhibition percentage,CDK1/cyclin B,1.3 percentage
same,inhibition percentage,PAK1,24.4 percentage
same,inhibition percentage,[1],−0.4 percentage
same,inhibition percentage,EPHB1,19.8 percentage
same,inhibition percentage,PAK7 (KIAA1264),4.9 percentage
same,inhibition percentage,CDK5/p25,11.4 percentage
same,inhibition percentage,ROCK1,−2.0 percentage
same,inhibition percentage,AKT2 (PKB beta),−22.9 percentage
same,inhibition percentage,JAK1,50.6 percentage
same,inhibition percentage,LIMK2,−3.5 percentage
same,inhibition percentage,PIK3C2B (PI3K-C2 beta),−1.8 percentage
same,inhibition percentage,AKT1 (PKB alpha),−23.3 percentage
same,inhibition percentage,CDC42 BPA (MRCKA),−1.8 percentage
same,inhibition percentage,PAK3,6.3 percentage
same,inhibition percentage,LIMK1,−14.2 percentage
same,inhibition percentage,ROCK2,−14.7 percentage
same,inhibition percentage,MAPK8 (JNK1),−1.1 percentage
same,inhibition percentage,JAK2,37.7 percentage
same,inhibition percentage,MAP3K2 (MEKK2),14.3 percentage
same,inhibition percentage,MYLK (MLCK),1.6 percentage
same,inhibition percentage,ABL1,19.3 percentage
same,inhibition percentage,MAP2K2 (MEK2),20.7 percentage
same,inhibition percentage,EGFR (ErbB1),24.6 percentage
same,inhibition percentage,MAPK9 (JNK2),−8.9 percentage
same,inhibition percentage,CDC42 BPB (MRCKB),−4.6 percentage
same,inhibition percentage,PDGFRA (PDGFR alpha),34.8 percentage
same,inhibition percentage,PAK4,−0.2 percentage
same,inhibition percentage,PAK2 (PAK65),0.3 percentage
same,inhibition percentage,[2],−5.8 percentage
same,inhibition percentage,FLT3,31.4 percentage
same,inhibition percentage,PIK3C3 (hVPS34),−17.8 percentage
same,inhibition percentage,KIT,26.3 percentage
same,inhibition percentage,PIK3C2A (PI3K-C2 alpha),−3.3 percentage
same,inhibition percentage,FRAP1 (mTOR),27.0 percentage
same,inhibition percentage,SRC,43.6 percentage
same,inhibition percentage,MAPK3 (ERK1),11.5 percentage
same,inhibition percentage,SYK,39.4 percentage
same,inhibition percentage,JAK3,21.9 percentage
same,inhibition percentage,IGF1R,42.9 percentage
same,inhibition percentage,PAK6,8.9 percentage
CCc1ccc(CN(C)C(=O)CCc2nnc(CCc3c[nH]c4ccccc34)o2)cc1 [Compound 2],binding to Rac1 by 2D NMR,Rac1,did not indicate any significant binding
same,inhibition of cancer cell proliferation,cancer cell,strongest inhibition
same,cell apoptosis and cell death,SEM cell line,caused cells apoptosis and cell death
same,bioluminescence in the mice,P12-ICHIKAWA cells,significantly reduced
same,binding in the HTRF assay,Tiam1-Rac complex,no binding
same,efficacy in inhibiting proliferation of SEM cells,SEM cells,improved efficacy
